Measured values reported in article PMC7591811 (Journal of Pharmaceutical Analysis, 2020).

What was measured:
[1] = molecular target: T1, Melatonin MT2 (Homo sapiens, UniProt P49286); test: Lead profiling screen; format: binding; details: for inhibition at 10 µM: Melatonin MT2, Human
T1 sequence (P49286 1-362): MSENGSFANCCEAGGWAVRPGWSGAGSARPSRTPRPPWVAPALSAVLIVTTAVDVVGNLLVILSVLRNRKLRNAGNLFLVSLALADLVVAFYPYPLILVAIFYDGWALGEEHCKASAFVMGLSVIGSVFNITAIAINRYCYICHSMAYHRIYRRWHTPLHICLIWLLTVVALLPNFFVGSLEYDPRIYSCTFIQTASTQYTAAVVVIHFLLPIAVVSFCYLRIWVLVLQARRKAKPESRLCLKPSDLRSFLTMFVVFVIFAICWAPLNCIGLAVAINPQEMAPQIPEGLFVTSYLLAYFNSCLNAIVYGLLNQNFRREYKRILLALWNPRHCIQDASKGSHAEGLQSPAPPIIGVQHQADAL

[2] = test system: Cl^- channel (GABA gated); test: Lead profiling screen; format: binding; details: 10 μM, Rat
[3] = molecular target: T2, AR (Homo sapiens, UniProt P10275); test: Lead profiling screen; format: binding; details: Rat
T2 sequence (P10275 1-920): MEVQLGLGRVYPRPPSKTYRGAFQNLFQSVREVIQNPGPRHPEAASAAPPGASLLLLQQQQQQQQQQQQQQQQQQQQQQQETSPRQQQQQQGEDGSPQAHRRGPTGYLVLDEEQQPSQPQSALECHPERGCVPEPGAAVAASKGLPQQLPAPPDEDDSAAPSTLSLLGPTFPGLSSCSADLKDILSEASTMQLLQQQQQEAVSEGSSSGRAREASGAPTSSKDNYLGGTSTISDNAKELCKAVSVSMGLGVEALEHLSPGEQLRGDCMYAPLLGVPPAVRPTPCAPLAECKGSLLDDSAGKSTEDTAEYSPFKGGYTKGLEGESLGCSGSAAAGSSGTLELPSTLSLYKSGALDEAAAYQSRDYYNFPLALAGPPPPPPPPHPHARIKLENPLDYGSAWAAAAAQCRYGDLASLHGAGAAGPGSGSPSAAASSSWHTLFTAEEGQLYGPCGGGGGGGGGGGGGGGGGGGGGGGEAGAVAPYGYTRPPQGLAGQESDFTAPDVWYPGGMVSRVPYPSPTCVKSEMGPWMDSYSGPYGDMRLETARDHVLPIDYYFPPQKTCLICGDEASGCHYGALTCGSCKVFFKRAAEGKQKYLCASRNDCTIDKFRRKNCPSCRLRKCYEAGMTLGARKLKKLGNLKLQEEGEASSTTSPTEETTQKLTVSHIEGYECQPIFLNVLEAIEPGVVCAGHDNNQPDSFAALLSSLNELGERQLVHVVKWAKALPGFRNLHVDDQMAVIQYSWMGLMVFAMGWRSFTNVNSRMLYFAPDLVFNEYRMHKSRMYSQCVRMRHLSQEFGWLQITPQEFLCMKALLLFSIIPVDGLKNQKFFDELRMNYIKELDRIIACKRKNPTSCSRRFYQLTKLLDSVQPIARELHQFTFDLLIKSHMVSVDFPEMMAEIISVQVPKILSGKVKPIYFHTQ

[4] = test system: BZD (central); test: Lead profiling screen; format: binding; details: 10 μM, Rat
[5] = molecular target: Melatonin MT1 (Homo sapiens, UniProt P48039); test: Lead profiling screen; format: binding
Sequence of Melatonin MT1 (P48039 whole entry): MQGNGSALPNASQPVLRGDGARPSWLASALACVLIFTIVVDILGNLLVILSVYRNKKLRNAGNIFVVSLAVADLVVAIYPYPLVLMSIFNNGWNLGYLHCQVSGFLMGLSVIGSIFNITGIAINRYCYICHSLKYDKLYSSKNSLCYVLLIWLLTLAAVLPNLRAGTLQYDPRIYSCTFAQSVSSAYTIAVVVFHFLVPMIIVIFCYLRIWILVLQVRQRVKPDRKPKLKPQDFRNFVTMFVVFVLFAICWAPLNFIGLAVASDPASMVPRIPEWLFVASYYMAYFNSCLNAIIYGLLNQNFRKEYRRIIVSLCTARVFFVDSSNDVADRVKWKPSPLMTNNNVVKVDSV

[6] = molecular target: T3, Adenosine A3 (Homo sapiens, UniProt P0DMS8); test: Lead profiling screen; format: binding; details: for inhibition at 10 µM: Adenosine A3, Human
T3 sequence (P0DMS8 1-318): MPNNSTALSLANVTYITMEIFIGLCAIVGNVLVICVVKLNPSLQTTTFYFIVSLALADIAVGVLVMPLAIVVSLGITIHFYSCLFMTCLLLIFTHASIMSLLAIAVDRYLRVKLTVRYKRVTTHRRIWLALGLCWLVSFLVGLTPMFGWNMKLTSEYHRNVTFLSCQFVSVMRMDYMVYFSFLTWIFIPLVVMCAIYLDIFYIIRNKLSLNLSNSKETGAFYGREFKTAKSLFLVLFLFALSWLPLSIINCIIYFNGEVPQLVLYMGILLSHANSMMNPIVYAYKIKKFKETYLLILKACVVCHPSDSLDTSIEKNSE

[7] = molecular target: BZD (peripheral) (Rattus norvegicus, UniProt P16257); test: Lead profiling screen; format: binding; details: for inhibition at 10 µM: BZD (peripheral) / TSPO, Rat
Sequence of BZD (peripheral) (P16257 whole entry): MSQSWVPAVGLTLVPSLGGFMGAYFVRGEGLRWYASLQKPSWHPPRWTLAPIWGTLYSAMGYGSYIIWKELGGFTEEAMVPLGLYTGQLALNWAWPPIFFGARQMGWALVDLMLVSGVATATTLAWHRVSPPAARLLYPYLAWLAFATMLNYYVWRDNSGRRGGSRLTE

[8] = molecular target: ctRAGE; details: read-out: ctRAGE Kd; cited from earlier work
[9] = molecular target: Cyclooxygenase 1 (Homo sapiens, UniProt P23219); test: Lead profiling screen, enzyme assay; format: biochemical
Sequence of Cyclooxygenase 1 (P23219 24-599, species assumed): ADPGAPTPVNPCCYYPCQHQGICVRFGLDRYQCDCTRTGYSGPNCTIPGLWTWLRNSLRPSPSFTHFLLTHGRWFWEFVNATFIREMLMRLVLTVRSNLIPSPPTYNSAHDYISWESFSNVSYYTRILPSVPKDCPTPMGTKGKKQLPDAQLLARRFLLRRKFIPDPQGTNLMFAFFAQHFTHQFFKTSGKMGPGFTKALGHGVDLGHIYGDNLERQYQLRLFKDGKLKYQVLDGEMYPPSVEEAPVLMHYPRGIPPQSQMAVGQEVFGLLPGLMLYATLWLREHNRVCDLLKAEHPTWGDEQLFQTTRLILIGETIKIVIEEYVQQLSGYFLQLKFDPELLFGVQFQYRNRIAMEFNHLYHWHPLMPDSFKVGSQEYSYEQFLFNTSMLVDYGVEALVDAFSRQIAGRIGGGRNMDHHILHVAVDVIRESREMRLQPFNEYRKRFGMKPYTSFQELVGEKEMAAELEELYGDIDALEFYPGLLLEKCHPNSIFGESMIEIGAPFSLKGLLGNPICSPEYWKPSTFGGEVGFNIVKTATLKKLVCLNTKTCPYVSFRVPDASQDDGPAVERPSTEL

[10] = molecular target: Serotonin (5-Hydroxytryptamine) 5-HT2B (Homo sapiens, UniProt P41595); test: Lead profiling screen; format: binding; details: for inhibition at 10 µM: 5-HT2B, Human
Sequence of Serotonin (5-Hydroxytryptamine) 5-HT2B (P41595 whole entry): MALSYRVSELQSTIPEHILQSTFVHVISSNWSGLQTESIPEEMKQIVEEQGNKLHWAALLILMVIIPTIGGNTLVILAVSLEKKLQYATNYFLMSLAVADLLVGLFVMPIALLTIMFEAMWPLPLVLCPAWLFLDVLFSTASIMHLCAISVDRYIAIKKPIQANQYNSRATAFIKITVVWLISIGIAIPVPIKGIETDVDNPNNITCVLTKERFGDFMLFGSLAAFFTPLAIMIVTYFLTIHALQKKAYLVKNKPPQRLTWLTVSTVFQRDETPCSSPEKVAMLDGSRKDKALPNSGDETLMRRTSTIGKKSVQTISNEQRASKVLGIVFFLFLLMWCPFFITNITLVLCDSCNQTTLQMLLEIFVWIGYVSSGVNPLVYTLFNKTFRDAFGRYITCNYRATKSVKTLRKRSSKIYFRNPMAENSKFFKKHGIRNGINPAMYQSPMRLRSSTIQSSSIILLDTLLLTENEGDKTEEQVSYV

[11] = molecular target: T4, UT (Homo sapiens, UniProt Q9UKP6); test: Lead profiling screen; format: binding; details: for inhibition at 10 µM: UT, Human
T4 sequence (Q9UKP6 1-389): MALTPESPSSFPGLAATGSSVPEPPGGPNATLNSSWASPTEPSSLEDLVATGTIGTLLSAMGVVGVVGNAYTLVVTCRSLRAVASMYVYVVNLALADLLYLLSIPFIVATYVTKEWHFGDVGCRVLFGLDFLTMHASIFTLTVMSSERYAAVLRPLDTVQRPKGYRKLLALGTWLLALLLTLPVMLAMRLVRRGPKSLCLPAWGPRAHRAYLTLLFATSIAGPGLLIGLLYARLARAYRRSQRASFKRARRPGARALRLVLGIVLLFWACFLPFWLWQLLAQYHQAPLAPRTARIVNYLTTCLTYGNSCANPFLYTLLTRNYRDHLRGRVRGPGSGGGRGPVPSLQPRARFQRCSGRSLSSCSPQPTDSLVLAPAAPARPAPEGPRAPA

[12] = molecular target: Serotonin (5-Hydroxytryptamine) 5-HT2A (Homo sapiens, UniProt P28223); test: Lead profiling screen; format: binding
Sequence of Serotonin (5-Hydroxytryptamine) 5-HT2A (P28223 whole entry): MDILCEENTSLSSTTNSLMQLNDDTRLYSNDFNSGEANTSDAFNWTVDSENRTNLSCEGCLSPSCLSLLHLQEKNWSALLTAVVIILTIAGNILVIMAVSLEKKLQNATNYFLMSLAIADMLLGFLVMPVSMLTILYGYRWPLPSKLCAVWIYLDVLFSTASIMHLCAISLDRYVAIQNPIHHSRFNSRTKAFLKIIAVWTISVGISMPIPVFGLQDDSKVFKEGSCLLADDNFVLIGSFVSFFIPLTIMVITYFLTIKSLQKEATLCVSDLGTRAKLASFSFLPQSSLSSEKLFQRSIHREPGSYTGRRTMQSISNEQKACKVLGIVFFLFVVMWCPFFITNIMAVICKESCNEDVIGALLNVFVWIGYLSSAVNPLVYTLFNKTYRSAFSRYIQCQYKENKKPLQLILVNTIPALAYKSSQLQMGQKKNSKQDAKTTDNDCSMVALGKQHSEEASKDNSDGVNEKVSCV

[13] = molecular target: EP2 (Homo sapiens, UniProt P43116); test: Lead profiling screen; format: binding
Sequence of EP2 (P43116 whole entry): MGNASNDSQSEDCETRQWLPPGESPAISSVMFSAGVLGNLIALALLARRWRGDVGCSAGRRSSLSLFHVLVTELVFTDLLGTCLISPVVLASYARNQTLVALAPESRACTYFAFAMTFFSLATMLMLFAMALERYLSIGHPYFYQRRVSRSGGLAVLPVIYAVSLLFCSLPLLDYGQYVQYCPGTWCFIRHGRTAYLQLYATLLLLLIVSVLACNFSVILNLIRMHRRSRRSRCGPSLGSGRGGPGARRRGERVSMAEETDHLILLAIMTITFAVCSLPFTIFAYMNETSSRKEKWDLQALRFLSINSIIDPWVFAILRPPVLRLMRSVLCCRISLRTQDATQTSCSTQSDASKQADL

[14] = molecular target: Norephinephrine transporter (Homo sapiens, UniProt P23975); test: Lead profiling screen; format: binding
Sequence of Norephinephrine transporter (P23975 whole entry): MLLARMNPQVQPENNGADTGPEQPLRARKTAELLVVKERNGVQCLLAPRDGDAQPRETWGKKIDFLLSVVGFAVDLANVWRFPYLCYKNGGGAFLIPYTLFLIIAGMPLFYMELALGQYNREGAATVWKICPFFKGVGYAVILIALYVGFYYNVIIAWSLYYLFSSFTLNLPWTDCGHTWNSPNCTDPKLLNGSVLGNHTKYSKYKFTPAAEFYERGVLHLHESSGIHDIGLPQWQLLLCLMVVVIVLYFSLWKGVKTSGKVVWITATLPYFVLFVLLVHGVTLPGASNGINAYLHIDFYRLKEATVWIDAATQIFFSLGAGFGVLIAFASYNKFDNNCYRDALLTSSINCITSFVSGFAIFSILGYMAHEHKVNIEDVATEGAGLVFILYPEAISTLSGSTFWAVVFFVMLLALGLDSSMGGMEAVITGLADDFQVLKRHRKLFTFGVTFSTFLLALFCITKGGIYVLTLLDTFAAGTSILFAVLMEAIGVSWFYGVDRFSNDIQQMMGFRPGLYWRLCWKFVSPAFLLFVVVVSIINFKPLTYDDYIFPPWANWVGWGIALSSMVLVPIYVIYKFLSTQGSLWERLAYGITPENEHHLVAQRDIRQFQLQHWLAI

[15] = [18F]RAGER autoradiography, competitive binding with melatonin; parameters: species or system human; details: 10 μM melatonin; control, AD and DLB + AD brain tissue sections
[16] = Rodent [18F]RAGER PET, melatonin blocking; details: 5 μg/kg i.v. 10 min prior to [18F]RAGER, healthy rodents
[17] = Nonhuman primate [18F]RAGER PET, melatonin blocking and displacement; details: NHP
[18] = cited from earlier work
[19] = molecular target: T5, Androgen (Testosterone) (Homo sapiens, UniProt P10275); test: Lead profiling screen; format: binding
T5 sequence (P10275 1-920): T2 sequence (P10275 1-920)

[20] = molecular target: Transporter, Dopamine (DAT) (Homo sapiens, UniProt Q01959); test: Lead profiling screen; format: binding
Sequence of Transporter, Dopamine (DAT) (Q01959 whole entry): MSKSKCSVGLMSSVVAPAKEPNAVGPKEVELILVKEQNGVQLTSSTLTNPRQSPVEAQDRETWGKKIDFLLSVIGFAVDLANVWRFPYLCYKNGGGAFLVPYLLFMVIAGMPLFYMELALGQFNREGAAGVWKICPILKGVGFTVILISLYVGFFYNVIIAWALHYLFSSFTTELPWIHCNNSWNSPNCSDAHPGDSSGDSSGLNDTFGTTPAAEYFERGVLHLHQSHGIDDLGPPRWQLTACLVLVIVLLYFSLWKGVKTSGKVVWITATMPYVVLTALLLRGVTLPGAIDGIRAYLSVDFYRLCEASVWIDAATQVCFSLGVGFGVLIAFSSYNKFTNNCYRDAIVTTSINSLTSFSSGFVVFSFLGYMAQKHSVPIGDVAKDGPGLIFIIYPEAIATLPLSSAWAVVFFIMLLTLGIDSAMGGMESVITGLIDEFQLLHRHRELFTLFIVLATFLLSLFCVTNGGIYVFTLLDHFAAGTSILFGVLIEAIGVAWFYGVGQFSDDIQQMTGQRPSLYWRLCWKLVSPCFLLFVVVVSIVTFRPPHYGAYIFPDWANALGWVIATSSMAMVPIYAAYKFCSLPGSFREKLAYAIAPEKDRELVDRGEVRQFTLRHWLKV

[21] = molecular target: Peripheral benzodiazepine receptor (Rattus norvegicus, UniProt P16257); test: Lead profiling screen, RAGER; format: binding
Sequence of Peripheral benzodiazepine receptor (P16257 whole entry): as the sequence (P16257 whole entry) above

O=C(c1ccc(Cl)cc1)N(Cc1ccccc1)C1CCCCC1 [FPS-ZM1, N-Benzyl-N-cyclohexyl-4-chlorobenzamide]
IC50 [1]: 7000 nM | Ki [1]: 4400 nM | inhibition at 10 µM [1]: 54% | % Inhibition [2]: 62% | inhibition at 10 µM [3]: 88% | % Inhibition [4]: 59% | IC50 [5]: 1500 nM | Ki [5]: 1200 nM | inhibition at 10 µM [5]: 54% | inhibition at 10 µM [6]: 64% | inhibition at 10 µM [7]: 85%

COc1cc(NC(C)=O)c(Cl)cc1C(=O)Nc1nccs1 [InRAGER2, 4-Acetamido-5-chloro-2-methoxy-N-(thiazol-2-yl)benzamide]
Kd [8]: 0.3 ± 0.05 nM | IC50 [9]: 12000 nM | IC50 [6]: 1400 nM | Ki [6]: 830 nM | inhibition at 10 µM [6]: 75% | IC50 [7]: 480 nM | Ki [7]: 440 nM | inhibition at 10 µM [7]: 81% | IC50 [10]: 260 nM | Ki [10]: 130 nM | inhibition at 10 µM [10]: 95% | IC50 [11]: 1400 nM | Ki [11]: 1000 nM | inhibition at 10 µM [11]: 85%

Oc1cccc(Nc2nc(-c3ccc(F)cc3F)cs2)c1 [InRAGER, 3-((4-(2,4-difluorophenyl)thiazol-2-yl)amino)phenol]
Ki [12]: 7800 nM | Kd [8]: 1 ± 0.5 nM | Ki [13]: 2300 nM | inhibition at 10 µM ([13]; 10 μM, EP2, Human): 74% | Ki [14]: 1500 nM | inhibition at 10 µM ([14]; 10 μM, Norephinephrine transporter, Human): 95% | Ki [6]: 24 nM | inhibition at 10 µM [6]: 99% | IC50 [7]: 480 nM | Ki [7]: 12000 nM | IC50 [10]: 260 nM | Ki [10]: 550 nM | inhibition at 10 µM [10]: 97% | IC50 [11]: 1400 nM | Ki [11]: 8900 nM | inhibition at 10 µM [11]: 78%

COc1ccc2[nH]cc(CCNC(C)=O)c2c1 [Melatonin]
displacement of [18F]RAGER [15]: not able to displace | effect on [18F]RAGER uptake or washout compared to baseline [16]: no effect | change in radioligand uptake, maximal SUV, TAC shape vs baseline (blocking) ([17]; 5 μg/kg i.v. 10 min prior to [18F]RAGER): did not reveal any decrease | maximal SUV or TAC shape vs baseline (displacement) ([17]; 10 μg/kg i.v. 40 min into the 90 min scan): did not differ significantly

O=C(c1ccc(F)cc1)N(Cc1ccccc1)C1CCCCC1 [RAGER, N-Benzyl-N-cyclohexyl-4-fluorobenzamide]
Ki [1]: 700 nM | inhibition at 10 µM [1]: 82% | experimental log P [18]: 3.5 | Ki [5]: 93 nM | inhibition at 10 µM [5]: 96% | Ki [19]: 2600 nM | inhibition at 10 µM [19]: 59% | Ki [20]: 6800 nM | inhibition at 10 µM [20]: 52% | Ki [21]: 8500 nM | inhibition at 10 µM ([21]; read-out: %Inhibition at 10 μM): 64%
